Results reported in patent EP4635958A1, “PYRIMIDINE-CONTAINING POLYCYCLIC DERIVATIVE INHIBITOR, AND PREPARATION METHOD THEREFOR AND USE THEREOF” (Shanghai Hansoh Biomedical Co., Ltd., priority 2022, dated 2024).
Read-outs that look alike come from different tables or passages of the source.

How the values were obtained:
[1] = system: human colorectal cancer cell line (GP2D); assay: Anti-tumor efficacy in mouse transplanted tumor model of human colorectal cancer cell line (GP2D); format: in vivo, mice (BALB/c nude); details: PO*BID
Description: 8-10 week old female conventional immunodeficient mice (BALB/c nude) with a body weight of 18 g-22 g were used as experimental animals, and a transplanted tumor model of human colorectal cancer cell line (GP2D) was used to conduct in vivo efficacy experiments to test the anti-tumor results of the example compounds after gavage administration.
The example compounds of the present invention, made in house.
A certain amount of the example compound was weighed, and an appropriate amount of 10% vehicle (Solutol HS15) was added. The mixture was stirred on a magnetic stirrer for 0.5 h to formulate a homogeneous suspension at the desired concentration.
The human colorectal cancer cell line (GP2D) was derived from COBIOER BIOSCIENCES CO., LTD, cultured on DMEM medium (Gibco, 11995-065) supplemented with 10% fetal calf serum (Gibco, 10091-148) and 1% penicillin/streptomycin (Gibco, 15140-122) and observed under a microscope (Thermo Fisher, 311). The cells were routinely passaged when the cells reached 80%-90% confluence in the culture flask. The passaged cells were cultured in a 37°C, 5% CO2 incubator (Thermo Fisher, 311).
Under aseptic conditions, human colorectal cancer cells (GP2D) in the logarithmic growth phase were harvested using 0.25% trypsin-EDTA (Gibco, 25200-056), washed and resuspended with phosphate buffer. The cell suspension was mixed with Matrigel (Corning, 356234) at a 1 : 1 ratio (v/v) and implanted subcutaneously into the right anterior dorsal region of immunodeficient mice (BALB/c nude). Each mouse was inoculated with 5*10^6 cells in a volume of 100 microliters (µL). After inoculation, when the tumor volume reached 100-200 mm^3, the mice would be evenly randomized into 5 groups based on the tumor size, with 5 mice per group, for in vivo efficacy experiments. The positive control group was the compound MRTX-1133, and the negative control group was the vehicle group.
Mode of administration: The positive control group was intraperitoneally injected, and the example compounds were administered orally.
Twice a week, the long and short diameters of the tumor were measured using a vernier caliper, and the tumor volume (mm^3) was calculated using the formula: V = 0.5*D*d*d, where D and d are the long and short diameters of the tumor, respectively. The anti-tumor efficacy was determined by dividing the average increase in tumor volume of compound-treated animals by the average increase in tumor volume of untreated animals. The calculation formula for tumor inhibition rate was: When there is no tumor regression, TGI(%) = 100-[(Vt-V0) administration group/(Vt-V0) vehicle control group]*100%. When tumor regression occurs, TGI(%) = [1-(V1-V0) administration group/V0 vehicle control group]* 100%. All animals were euthanized after the experiment.

[2] = Pharmacokinetic determination in rats (IV and PO, plasma, LCMS/MS); format: in vivo, SD rats
How it was run: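 Male SD rats (3/group), fasted overnight, dosed PO at 30 mg/kg in 10% Captisol/50 mM citrate pH 5.0 or IV at 1 mg/kg in 5% DMSO/10% Solutol HS15/85% PBS. Jugular plasma (EDTA-2K) sampled predose to 24 h; analysed by LCMS/MS.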

GP2D = assay: Inhibition of proliferation of KRAS G12D mutant tumor cell line GP2D (CellTiter-Glo); details: read-out: GP2D IC50
Description: Experimental method: When SNU-1, HPAF-II, Panc0403, AsPC-1 or GP2D cells were cultured to the appropriate confluence, and the SNU-1, HPAF-II, Panc0403, AsPC-1 or GP2D cells were collected. The cells were adjusted to the appropriate cell density using complete culture medium, the cell suspension was plated onto a 96-well plate at 90 µL per well, and the plate was placed in the incubator at 37°C and 5% CO2 for adherent culture overnight. Solutions of the compound with different concentrations were formulated using DMSO and culture medium. A vehicle control was set up. […] Then, CellTiter-Glo solution was added, and the obtained mixture was shaken and mixed evenly, incubated in the dark for 10 min, and read with a BioTek Synergy H1 microplate reader. […] Experimental data processing method: The luminescence signal value was used to calculate the inhibition rate. Graphpad Prism software was used to fit the concentration and inhibition rate to a nonlinear regression curve, so as to obtain the IC50 value.

[3] = Plasma stability test, dog plasma; format: in vitro ADME;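 further: parent compound left in dog plasma quantified by LC-MS with positive electrospray ionization, selected reaction monitoring and an internal standard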
Description: (§1) Liquid chromatography-mass spectrometer, centrifuge, vortexer, pipette, continuous dispenser, 96-well plate, 50% methanol aqueous solution, acetonitrile solution containing internal standard, blank matrix (plasma of rat, dog, or human), Propantheline (propantheline bromide), Mevinolin (lovastatin), and test compound.
(§2) After whole blood was collected from animals or humans, it was placed in a test tube containing an anticoagulant and centrifuged at 3500 rpm for 10 min to collect the upper pale yellow plasma.
(§3) The compound was weighed and the stock solution was formulated with DMSO and the working solution was formulated with 100 mM phosphate buffer.
(§4) • Instrument: API4000 liquid chromatography-mass spectrometer, AB Company, USA; • the ion source was electrospray ionization source (ESI); • drying gas (N2) temperature was 500°C; • electrospray voltage was 5500V; • the detection method was positive ion detection; • the scanning method was selected reaction monitoring (MRM); • the scanning time was 0.1s.

[4] = Plasma stability test, rat plasma; details: for half-life: rat, plasma
[5] = Plasma stability test, human plasma; format: in vitro ADME;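 further: test compound incubated in human plasma, quantified by LC-MS/MS (positive-ion ESI, MRM) against an internal standard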
Description: as §1, §2, §3, §4

[6] = IV, 1 mg/kg, male SD rats, overnight fasting, plasma
[7] = PO 30 mg/kg vs IV 1 mg/kg, male SD rats
[8] = PO, 30 mg/kg, male SD rats, overnight fasting, plasma

4-((5S,5aS,6R,9S)-12-((1-((((R)-4-(difluoromethylene)-2-methylpiperidin-1-yl)methyl)cyclopropyl)methoxy)-1-fluoro-5-(methyl-d3)-5a,6,7,8,9,10-hexahydro-5H-4-oxa-3,10a,11,13,14-pentaaza-6,9-methylnaphtho[1,8-ab]hept-2-yl)-5-ethynyl-6-fluoronaphthalen-2-ol [Example 162]
Tumor volume (mm^3, Mean ± SD) Day 0 ([1]; 30mpk): 167 mm^3
TGI(%) Day 14 ([1]; 30mpk): 122.15%
ΔT/ΔC(%) Day 14 ([1]; 30mpk): 16.47%
Tumor volume (mm^3, Mean ± SD) Day 0 ([1]; 100mpk): 167 mm^3
TGI(%) Day 14 ([1]; 100mpk): 133.67%
Tumor volume (mm^3, Mean ± SD) Day 14 ([1]; 100mpk): 111 mm^3
ΔT/ΔC(%) Day 14 ([1]; 100mpk): 14.04%
AUCo-∞ [2, 6]: 514 ng·h/mL
C0 [2, 6]: 438 ng/mL
CL [2, 6]: 32.4 mL/min/kg
T1/2 [2, 6]: 10.8 h
F [2, 7]: 10.3%
AUCo-∞ [2, 8]: 1591 ng·h/mL
Cmax [2, 8]: 89 ng/mL
T1/2 [2, 8]: 10.5 h
Tmax [2, 8]: 4.0 h
IC50 (GP2D; proliferation, about 72 h, CellTiter-Glo): 0.2 nM

C#Cc1c(F)ccc2cc(O)cc(-c3nc4c5c(nc(OCC6(CN7CCC(=CF)CC7)CC6)nc5c3F)N3C[C@H]5CC[C@H](N5)[C@H]3[C@H](C)O4)c12 [Example 129, 5-ethynyl-6-fluoro-4-((5S,5aS,6S,9R)-1-fluoro-12-((1-((4-(fluoromethylene)piperidin-1-yl)methyl)cyclopropyl)methoxy)-5-methyl-5a,6,7,8,9,10-hexahydro-5H-4-oxa-3,10a,11,13,14-pentaaza-6,9-methylnaphtho[1,8-ab]hept-2-yl)naphthalen-2-ol]
t1/2 ([3]; Dog plasma, 37°C): ∞
Remaining rate (%) 0 min ([3]; Dog plasma, 37°C, 0 min): 100.00%
Remaining rate (%) 15 min ([3]; Dog plasma, 37°C, 15 min): 100.48%
Remaining rate (%) 30 min ([3]; Dog plasma, 37°C, 30 min): 100.22%
Remaining rate (%) 60 min ([3]; Dog plasma, 37°C, 60 min): 97.42%
Remaining rate (%) 120 min ([3]; Dog plasma, 37°C, 120 min): 110.22%
Tumor volume (mm^3, Mean ± SD) Day 0 ([1]; 30mpk): 167 mm^3
TGI(%) Day 14 ([1]; 30mpk): 133.12%
ΔT/ΔC(%) Day 14 ([1]; 30mpk): 14.15%
Tumor volume (mm^3, Mean ± SD) Day 0 ([1]; 100mpk): 167 mm^3
TGI(%) Day 14 ([1]; 100mpk): 153.01%
Tumor volume (mm^3, Mean ± SD) Day 14 ([1]; 100mpk): 79 mm^3
ΔT/ΔC(%) Day 14 ([1]; 100mpk): 9.94%
F [2, 7]: 5.4%
AUC(0-inf) ([2]; rat, in vivo, IV, 1 mg/kg, male SD rats, overnight fasting, plasma, read-out: AUCo-∞): 578 ng·h/mL
C0 ([2]; rat, in vivo, IV, 1 mg/kg, male SD rats, overnight fasting, plasma, read-out: C0): 2120 ng/mL
clearance ([2]; rat, in vivo, IV, 1 mg/kg, male SD rats, overnight fasting, plasma, read-out: CL): 28.8 mL/min/kg
half-life ([2]; rat, in vivo, IV, 1 mg/kg, male SD rats, overnight fasting, plasma, read-out: T1/2 (converted)): 11.7 h
AUC(0-inf) ([2]; rat, in vivo, PO, 30 mg/kg, male SD rats, overnight fasting, plasma, read-out: AUCo-∞): 938 ng·h/mL
Cmax ([2]; rat, in vivo, PO, 30 mg/kg, male SD rats, overnight fasting, plasma, read-out: Cmax): 103 ng/mL
half-life ([2]; rat, in vivo, PO, 30 mg/kg, male SD rats, overnight fasting, plasma, read-out: T1/2 (converted)): 9.6 h
Tmax ([2]; rat, in vivo, PO, 30 mg/kg, male SD rats, overnight fasting, plasma, read-out: Tmax): 1 h
IC50 (GP2D; Homo sapiens, GP2d, 72 h): 0.17 nM
Remaining rate (%) 0 min ([4]; Rat plasma, 37°C, 0 min): 100.00%
Remaining rate (%) 15 min ([4]; Rat plasma, 37°C, 15 min): 110.22%
Remaining rate (%) 30 min ([4]; Rat plasma, 37°C, 30 min): 98.09%
Remaining rate (%) 60 min ([4]; Rat plasma, 37°C, 60 min): 106.43%
Remaining rate (%) 120 min ([4]; Rat plasma, 37°C, 120 min): 95.62%
half-life [4]: 41.2 h
t1/2 ([5]; Human plasma, 37°C): ∞
Remaining rate (%) 0 min ([5]; Human plasma, 37°C, 0 min): 100.00%
Remaining rate (%) 15 min ([5]; Human plasma, 37°C, 15 min): 109.00%
Remaining rate (%) 30 min ([5]; Human plasma, 37°C, 30 min): 97.59%
Remaining rate (%) 60 min ([5]; Human plasma, 37°C, 60 min): 101.54%
Remaining rate (%) 120 min ([5]; Human plasma, 37°C, 120 min): 105.91%

[2H]C([2H])([2H])[C@@H]1Oc2nc(-c3cc(O)cc4ccc(F)c(C#C)c34)c(F)c3nc(OCC4(CN5CCC(=C(F)F)CC5)CC4)nc(c23)N2C[C@H]3CC[C@H](N3)[C@@H]12 [Example 161, 4-((5S,5aS,6S,9R)-12-((1-((4-(difluoromethylene)piperidin-1-yl)methyl)cyclopropyl)methoxy)-1-fluoro-5-(methyl-d3)-5a,6,7,8,9,10-hexahydro-5H-4-oxa-3,10a,11,13,14-pentaaza-6,9-methylnaphtho[1,8-ab]hept-2-yl)-5-ethynyl-6-fluoronaphthalen-2-ol]
half-life ([3]; Dog plasma, 37°C, read-out: t1/2 (converted)): 31.4 h
Remaining rate (%) 0 min ([3]; dog, plasma, 0 h): 100.00%
Remaining rate (%) 15 min ([3]; dog, plasma, 0.25 h): 91.74%
Remaining rate (%) 30 min ([3]; dog, plasma, 0.5 h): 92.09%
Remaining rate (%) 60 min ([3]; dog, plasma, 1 h): 90.97%
Remaining rate (%) 120 min ([3]; dog, plasma, 2 h): 88.28%
Tumor volume (mm^3, Mean ± SD) Day 0 ([1]; 30mpk): 167 mm^3
TGI(%) Day 14 ([1]; 30mpk): 134.18%
ΔT/ΔC(%) Day 14 ([1]; 30mpk): 13.93%
Tumor volume (mm^3, Mean ± SD) Day 0 ([1]; 100mpk): 167 mm^3
TGI(%) Day 14 ([1]; 100mpk): 153.75%
Tumor volume (mm^3, Mean ± SD) Day 14 ([1]; 100mpk): 77 mm^3
ΔT/ΔC(%) Day 14 ([1]; 100mpk): 9.79%
F ([2]; rat, in vivo): 7%
AUC(0-inf) ([2]; rat, in vivo, iv, 1 mg/kg): 1420 ng·h/mL
C0 ([2]; rat, in vivo, iv, 1 mg/kg): 704 ng/mL
clearance ([2]; rat, in vivo, iv, 1 mg/kg): 11.7 mL/min/kg
half-life ([2]; rat, in vivo, iv, 1 mg/kg): 8.4 h
AUC(0-inf) ([2]; rat, in vivo, po, 30 mg/kg): 2890 ng·h/mL
Cmax ([2]; rat, in vivo, po, 30 mg/kg): 254 ng/mL
Tmax ([2]; rat, in vivo, po, 30 mg/kg): 6 h
half-life ([2]; rat, in vivo, po, 30 mg/kg): 6.9 h
IC50 (GP2D; Homo sapiens, GP2d, 72 h): 0.24 nM
half-life [4]: 29.4 h
half-life ([5]; Human plasma, 37°C, read-out: t1/2 (converted)): 142 h
Remaining rate (%) 0 min ([5]; human, plasma, 0 h): 100.00%
Remaining rate (%) 15 min ([5]; human, plasma, 0.25 h): 93.48%
Remaining rate (%) 30 min ([5]; human, plasma, 0.5 h): 92.44%
Remaining rate (%) 60 min ([5]; human, plasma, 1 h): 95.19%
Remaining rate (%) 120 min ([5]; human, plasma, 2 h): 97.25%
